Experimental data published in patent US20140120087A1, “TRIAZOLOPYRIDINES” (BAYER INTELLECTUAL PROPERTY GMBH, priority 2011, published 2014).

Columns and labels:
[1] = Hydrolytic stability assay at pH 2; type: physicochemical; conditions: buffer pH 2, 37° C.
Procedure: The hydrolytic stability assay investigates the stability of a compound in an aqueous buffer system. Standard solution stability assay is run in 0.05 M Phosphate buffer at pH 7.4 (pH of blood plasma) at 37° C. As compounds in the GI tract are exposed to a wide variety of pHs any relevant pH (as pH 2 to simulate the acidic condition of the GI tract in the following experiment) can be chosen. Compounds are incubated in relevant solution at 37° C. and analyzed by HPLC immediately after incubation and after 1, 2 and 24 hrs. Degradation rate (decay in %) is calculated by relating peak areas after 1, 2 and 24 hrs to the time zero injection.
Compound is available as 10 mM in DMSO (solution 1). 2.5 μL of solution 1 is dissolved in 1 mL acetonitrile leading to solution 2. Poorly soluble compounds may demand another dilution step of solution 2 (1:5 and 1:10 respectively) in Acetonitrile). Solution 2 is incubated at 37° C. in a tempered HPLC autosampler. 1 mL buffer pH 2 is transferred into an HPLC vial. 100 μL of solution 2 is added to the buffer pH 2 solution and mixed thoroughly. Immediately after mixing the combined solution is injected into the HPLC to give the time zero injection. Injections are repeated after 1, 2 and 24 hrs.
The degradation rate (decay in %) is calculated using HPLC software Millennium and Excel respectively.

Mps-1 kinase [2] = biological target: T1, Mps-1 kinase (Homo sapiens, UniProt P33981); assay: Mps-1 kinase assay with 10 μM ATP (TR-FRET)
T1 sequence (P33981 1-857): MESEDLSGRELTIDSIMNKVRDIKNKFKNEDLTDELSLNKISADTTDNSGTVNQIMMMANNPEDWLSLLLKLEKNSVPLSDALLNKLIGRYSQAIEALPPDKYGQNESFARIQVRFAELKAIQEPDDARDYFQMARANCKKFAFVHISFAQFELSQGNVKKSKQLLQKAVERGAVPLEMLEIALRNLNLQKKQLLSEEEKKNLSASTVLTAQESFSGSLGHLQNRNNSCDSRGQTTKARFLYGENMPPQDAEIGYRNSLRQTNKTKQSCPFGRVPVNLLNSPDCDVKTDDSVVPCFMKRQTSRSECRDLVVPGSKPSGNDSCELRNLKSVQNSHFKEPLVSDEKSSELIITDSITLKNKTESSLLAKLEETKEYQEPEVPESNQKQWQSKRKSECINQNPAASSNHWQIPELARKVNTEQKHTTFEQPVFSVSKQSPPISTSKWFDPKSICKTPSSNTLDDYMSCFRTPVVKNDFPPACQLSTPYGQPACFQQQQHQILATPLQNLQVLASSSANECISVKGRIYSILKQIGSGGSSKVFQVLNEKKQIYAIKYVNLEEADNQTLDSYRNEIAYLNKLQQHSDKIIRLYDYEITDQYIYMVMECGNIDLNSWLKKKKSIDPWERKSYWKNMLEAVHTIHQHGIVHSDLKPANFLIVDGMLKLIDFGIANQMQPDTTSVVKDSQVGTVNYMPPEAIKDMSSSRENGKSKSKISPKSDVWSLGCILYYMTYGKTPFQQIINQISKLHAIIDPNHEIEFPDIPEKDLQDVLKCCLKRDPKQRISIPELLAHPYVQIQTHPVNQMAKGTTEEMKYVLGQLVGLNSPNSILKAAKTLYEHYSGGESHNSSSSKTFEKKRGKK

Mps-1 kinase [3] = biological target: T1, Mps-1 kinase; assay: Mps-1 kinase assay with 2 mM ATP (TR-FRET)
[4] = comparison compounds specified in WO2011/063908

| SMILES | Hydrolysis at pH 2; Decay in % after 24 h [1, 4] | Hydrolysis at pH 2; Decay in % after 24 h ([1]; compounds of the invention) [%] | IC50 (Mps-1 kinase [2]) [nM] | IC50 (Mps-1 kinase [3]) [nM] |
| --- | --- | --- | --- | --- |
| CCN(CC)C(=O)c1ccc(Nc2nc3ccc(-c4ccc(NC(=O)Cc5ccc(F)cc5)cc4)cn3n2)c(OC)c1 [Example 01.1, N,N-diethyl-4-{[6-(4-{[(4-fluorophenyl)acetyl]amino}phenyl)[1,2,4]-triazolo[1,5-α]pyridin-2-yl]amino}-3-methoxybenzamide] |  | <10 | ≤ 1 | 1.2 |
| CCNC(=O)c1ccc(Nc2nc3ccc(-c4ccc(NC(=O)Cc5ccc(F)cc5)cc4)cn3n2)c(OC)c1 [Example 01.4, N-ethyl-4-{[6-(4-{[(4-fluorophenyl)acetyl]amino}phenyl)[1,2,4]triazolo[1,5-α]pyridin-2-yl]amino}-3-methoxybenzamide] |  | <10 | ≤ 1 | ≤ 1 |
| COc1cc(C(=O)NC(C)(C)C)ccc1Nc1nc2ccc(-c3ccc(NC(=O)Cc4ccc(F)cc4)cc3)cn2n1 [Example 01.5, N-tert-butyl-4-{[6-(4-{[(4-fluorophenyl)acetyl]amino}phenyl)[1,2,4]-triazolo[1,5-α]pyridin-2-yl]amino}-3-methoxybenzamide] |  | <10 | ≤ 1 | ≤ 1 |
| COc1cc(C(=O)NCCO)ccc1Nc1nc2ccc(-c3ccc(NC(=O)Cc4ccc(F)cc4)cc3)cn2n1 [Example 01.6, 4-{[6-(4-{[(4-fluorophenyl)acetyl]amino}phenyl)[1,2,4]triazolo[1,5-α]-pyridin-2-yl]amino}-N-(2-hydroxyethyl)-3-methoxybenzamide] |  | <10 | ≤ 1 | ≤ 1 |
| CCOCCNC(=O)c1ccc(Nc2nc3ccc(-c4ccc(NC(=O)Cc5ccc(F)cc5)cc4)cn3n2)c(OC)c1 [Example 01.7, N-(2-ethoxyethyl)-4-{[6-(4-{[(4-fluorophenyl)acetyl]amino}phenyl)[1,2,4]-triazolo[1,5-α]pyridin-2-yl]amino}-3-methoxybenzamide] |  | <10 | ≤ 1 | ≤ 1 |
| COc1cc(S(C)(=O)=O)ccc1Nc1nc2ccc(-c3ccc(NC(=O)Cc4ccc(F)cc4)cc3)cn2n1 [Example 01.15, 2-(4-fluorophenyl)-N-[4-(2-{[2-methoxy-4-(methylsulfonyl)phenyl]amino}-[1,2,4]triazolo[1,5-α]pyridin-6-yl)phenyl]acetamide] |  | <10 |  |  |
| COc1cc(C(=O)NC(C)(C)CO)ccc1Nc1nc2ccc(-c3ccc(C(=O)NCc4ccc(F)cc4)c(Cl)c3)cn2n1 [Example 05.1, 2-chloro-N-(4-fluorobenzyl)-4-[2-({4-[(1-hydroxy-2-methylpropan-2-yl)-carbamoyl]-2-methoxyphenyl}amino)[1,2,4]triazolo[1,5-α]pyridin-6-yl]-benzamide] |  | <10 | ≤ 1 |  |
| CCNC(=O)c1ccc(Nc2nc3ccc(-c4ccc(C(=O)NCC5CC5)cc4)cn3n2)c(OCC)c1 [Example 06.1, 4-[(6-{4-[(cyclopropylmethyl)carbamoyl]phenyl}[1,2,4]triazolo[1,5-α]-pyridin-2-yl)amino]-3-ethoxy-N-ethylbenzamide] |  | <10 | ≤ 1 |  |
| COc1cc(C(C)(C)O)ccc1Nc1nc2ccc(-c3ccc(C(=O)NCc4ccc(F)cc4)c(OC)c3)cn2n1 [Example 12.81, N-(4-fluorobenzyl)-4-(2-{[4-(2-hydroxypropan-2-yl)-2-methoxyphenyl]amino}-[1,2,4]triazolo[1,5-a]pyridin-6-yl)-2-methoxybenzamide] |  |  | ≤ 1 | 7.3 |
| COc1cc(S(C)(=N)=O)ccc1Nc1nc2ccc(-c3ccc(NC(=O)Cc4ccc(F)cc4)cc3)cn2n1 (stereo not drawn) [Example 12.82, 2-(4-fluorophenyl)-N-[4-(2-{[2-methoxy-4-(S-methylsulfonimidoyl)phenyl]-amino}[1,2,4]triazolo[1,5-α]pyridin-6-yl)phenyl]acetamide] |  |  | ≤ 1 | ≤ 1 |
| COc1cc(S(C)(=N)=O)ccc1Nc1nc2ccc(-c3ccc(C(=O)NCc4ccc(F)cc4)cc3)cn2n1 (stereo not drawn) [Example 12.83, N-(4-fluorobenzyl)-4-(2-{[2-methoxy-4-(S-methylsulfonimidoyl)phenyl]-amino}[1,2,4]triazolo[1,5-α]pyridin-6-yl)benzamide] |  |  | ≤ 1 | 1.8 |
| COc1cc(CO)ccc1Nc1nc2ccc(-c3ccc(NC(=O)Cc4ccc(F)cc4)cc3)cn2n1 [Example 12.84, 2-(4-fluorophenyl)-N-[4-(2-{[4-(hydroxymethyl)-2-methoxyphenyl]amino}-[1,2,4]triazolo[1,5-α]pyridin-6-yl)phenyl]acetamide] |  |  | ≤ 1 | ≤ 1 |
| COc1cc(CO)ccc1Nc1nc2ccc(-c3ccc(C(=O)NCc4ccc(F)cc4)cc3)cn2n1 [Example 12.85, N-(4-fluorobenzyl)-4-(2-{[4-(hydroxymethyl)-2-methoxyphenyl]amino}-[1,2,4]triazolo[1,5-α]pyridin-6-yl)benzamide] |  |  | ≤ 1 | 2.2 |

Further lines, results first:

| Hydrolysis at pH 2; Decay in % after 24 h [1, 4] | Hydrolysis at pH 2; Decay in % after 24 h ([1]; compounds of the invention) [%] | IC50 (Mps-1 kinase [2]) [nM] | IC50 (Mps-1 kinase [3]) [nM] | SMILES |
| --- | --- | --- | --- | --- |
| ≧90% |  |  |  | N#Cc1ccccc1Nc1nc2ccc(-c3ccc(NC(=O)Cc4ccc(F)cc4)cc3)cn2n1 [Example 1, reference compound] |
|  | <10 | ≤ 1 | 4.1 | COc1cc(C#N)ccc1Nc1nc2ccc(-c3ccc(NC(=O)Cc4ccc(F)cc4)cc3)cn2n1 [Example 01.2, N-(4-{2-[(4-cyano-2-methoxyphenyl)amino][1,2,4]triazolo[1,5-α]pyridin-6-yl}phenyl)-2-(4-fluorophenyl)acetamide] |
|  | <10 | ≤ 1 | 1.1 | CCOc1cc(F)ccc1Nc1nc2ccc(-c3ccc(NC(=O)Cc4ccc(F)cc4)cc3)cn2n1 [Example 01.3, N-(4-{2-[(2-ethoxy-4-fluorophenyl)amino][1,2,4]triazolo[1,5-α]pyridin-6-yl}phenyl)-2-(4-fluorophenyl)acetamide] |
| ≧20% |  | ≤ 1 |  | N#Cc1c(F)cccc1Nc1nc2ccc(-c3ccc(NC(=O)Cc4ccccc4)cc3)cn2n1 [Example 2, reference compound] |
| ≧70% |  | ≤ 1 |  | N#Cc1ccccc1Nc1nc2ccc(-c3ccc(NC(=O)Cc4ccccc4F)cc3)cn2n1 [Example 3, reference compound] |
| ≧70% |  | ≤ 1 |  | N#Cc1ccccc1Nc1nc2ccc(-c3ccc(NC(=O)Cc4ccc(F)c(F)c4)cc3)cn2n1 [Example 4, reference compound] |
| ≧70% |  | ≤ 1 |  | COc1cccc(CC(=O)Nc2ccc(-c3ccc4nc(Nc5ccccc5C#N)nn4c3)cc2)c1 [Example 5, reference compound] |
| ≧90% |  |  |  | N#Cc1ccccc1Nc1nc2ccc(-c3ccc(NC(=O)Cc4ccccc4)cc3)cn2n1 [Example 6, reference compound] |
| ≧70% |  | 1.1 |  | N#Cc1ccccc1Nc1nc2ccc(-c3ccc(NC(=O)Cc4cccc(F)c4)cc3)cn2n1 [Example 7, reference compound] |
| ≧70% |  | 1.4 |  | N#Cc1ccccc1Nc1nc2ccc(-c3ccc(NC(=O)Cc4cccc(C(F)(F)F)c4)cc3)cn2n1 [Example 8, reference compound] |
| ≧70% |  | 2.1 |  | Cc1ccc(C#N)c(Nc2nc3ccc(-c4ccc(NC(=O)Cc5ccccc5)cc4)cn3n2)c1 [Example 10, reference compound] |
